From ChEMBL document CHEMBL1153458, “Design, synthesis and evaluation of a novel cyclohexanamine class of neuropeptide Y Y1 receptor antagonists” (Bioorg Med Chem Lett, 2009)

Assay: physchem
Conditions: human

Row | SMILES | pKa
1 | COc1ccc([C@H](N[C@@H]2CC[C@@H](C(=O)N3CCC(C(=O)N4CCCC4)(c4ccccc4)CC3)C(C)(C)C2)C(F)(F)F)cc1 | 4.24
2 | COc1ccc([C@@H](C)N[C@@H]2CC[C@@H](C(=O)N3CCC(C(=O)N4CCCC4)(c4ccccc4)CC3)C(C)(C)C2)cc1 | 10.2
